Test results from PMC7663184, “Vitamin B3-Based Biologically Active Compounds as Inhibitors of Human Cholinesterases” (International Journal of Molecular Sciences, 2020).
“Also recorded” adds a separate entry of the source.

How the values were obtained:
BChE = conditions: cited from earlier work
[1] = Cytotoxicity assay (MTS) on HEK293 cells; type: cell-based
Protocol: (§1) SH-SY5Y were grown in DMEM F12 (Sigma-Aldrich, Steinheim, Germany) supplemented with 15% (v/v) fetal bovine serum (Sigma-Aldrich, Steinheim, Germany), 1% (v/v) non-essential amino acids (NEAA, Sigma-Aldrich, Steinheim, Germany) and 1% (v/v) antibiotics solution Penicilin-Streptomycin (Sigma-Aldrich, Steinheim, Germany) while HEK293 were grown in EMEM (Sigma-Aldrich, Steinheim, Germany) supplemented with 10% (v/v) fetal bovine serum (Sigma-Aldrich, Steinheim, Germany), 1% (v/v) non-essential amino acids (NEAA, Sigma-Aldrich, Steinheim, Germany) and 1% (v/v) antibiotics solution Penicilin-Streptomycin (Sigma-Aldrich, Steinheim, Germany).
(§2) After cultivation, the cells were detached using 0.25% Trypsin/EDTA solution (Sigma-Aldrich, St. Louis, MO, USA), re-suspended and seeded at density of 20,000 cells/well in 96-well plates for experiments. The assay in 96-well was performed in 120 µL/well media volume. […] The procedure followed a previously described protocol and the manufacturer’s recommendations. […] Data was evaluated from at least two or three experiments (each in duplicate or triplicate) using IC50 nonlinear fit equation predefined in Prism6 software and presented as percentage of inhibition to control untreated cells.

[2] = Cytotoxicity assay (MTS) on SH-SY5Y cells; type: cell-based; conditions: human; SH-SY5Y cells, MTS assay, 6.25–800 µM, mean of at least three experiments with standard error
Protocol: as §1, §2

human BChE = human BChE (Homo sapiens, UniProt P06276); experiment: BChE reversible inhibition (Ellman's method, Hunter–Downs evaluation)
human AChE = human AChE (Homo sapiens, UniProt P22303); experiment: AChE reversible inhibition (Ellman's method, Hunter–Downs evaluation); type: biochemical; conditions: for Ki: human erythrocyte AChE, ATCh substrate, 0.1 M sodium phosphate buffer pH 7.4, at least three experiments, read-out: Ki ± SE AChE; for Ki (AChE)/Ki (BChE): selectivity ratio of measured Ki values
Excerpt: The determined BChE phenotype was UU (usual).

AChE [3] = conditions: ratio of literature Ki values from [47], [48],[49]
AChE [4] = conditions: ref [47]; cited from earlier work
phospho-ACC (Ser79) = experiment: Intracellular signalling by Western blot: phospho-ACC; type: cell-based, human; conditions: serum-starved HEK293 cells, 100 μM, 10 or 30 min, vs. Basal
Protocol: (§3) Intracellular signalling in the presence of the selected nicotinamide derivative was evaluated on HEK293 cells. To enhance attachment of HEK293 cells, 12-well plates were aseptically pre-coated with poly-lysin (50 µg/mL, 0.5 mL/well). After 1-h incubation, the solution was removed, surface rinsed with sterile demineralized water and allowed to dry for 1 h. HEK293 cells were seeded at a density of 300,000 cells/well in DMEM (1 g/L glucose, Gibco, Paisley, UK) supplemented with 10% (v/v) FBS (Gibco, Paisley, UK) and 1% (v/v) Pen-Strep (Gibco, Paisley, UK). The next day (after 20 h) the medium was replaced with DMEM without additions. The cells were serum-starved for 4 h. During the last 10 and 30 min, the cells were treated with 100 μM 3, 4, 5 or 8. Basal (control) samples were treated with vehicle (DMSO) for 30 min. At the end of the experiment, cells were washed with ice-cold PBS and lysed in Laemmli buffer (62.5 mM Tris-HCl (pH 6.8), 2% (w/v) sodium dodecyl sulfate (SDS), 10% (w/v) glycerol, 5% (v/v) 2-mercaptoethanol, 0.002% (w/v) bromophenol blue). The proteins were resolved with SDS-PAGE (precasted 4–12% polyacrylamide gels, Bio-Rad, CA, USA) and transferred to the PVDF membrane (Merck Millipore, Darmstadt, Germany) with wet electrotransfer using Criterion system and Bis-Tris gradient gels (Bio-rad, CA, USA). After the transfer, the membranes were stained with Ponceau S (0.1% (w/v) in 5% (v/v) acetic acid) to evaluate uniformity of sample loading and efficiency of transfer. The membranes were then blocked with 7.5% (w/v) dry milk in Tris-buffered saline with Tween 20 (TBST: 20 mM Tris, 150 mM NaCl, 0.02% (v/v) Tween 20, pH 7.5) for 1 h at room temperature. After blocking, the membranes were incubated with the primary antibody in the primary antibody buffer (20 mM Tris, 150 mM NaCl, pH 7.5, 0.1% (w/v) BSA and 0.1% (w/v) sodium azide) overnight at 4 °C and then with the secondary antibody-horseradish peroxidase conjugate (Bio-Rad, CA, USA) in TBST with 5% (w/v) dry milk for 1 h at room temperature. Finally, the membranes were incubated with enhanced chemiluminescence (ECL) reagent (Bio-Rad, CA, USA) and then immunolabelled proteins were visualized on X-ray films. Films were scanned with GS-800 Densitometer (Bio-Rad, CA, USA) and analysed with Quantity One 1-D 4.6.8 Analysis Software (Bio-Rad, CA, USA). […] Target proteins were detected using primary antibodies against phospho-Akt (Ser473, Cell Signaling #4060, Netherlands) phospho-ERK1/2 (Thr202/Tyr204, Cell Signaling #4370, Netherlands), phospho-S6 ribosomal protein (Ser235/236, Cell Signaling #2211, Netherlands), phospho-AMPK (Thr172, Cell Signaling #2535, Netherlands), phospho-acetyl-CoA carboxylase (Ser79, Cell Signaling #3661, Netherlands) and HIF-1α (Novus Biologicals NB100–449, CO, USA).

HIF-1α = experiment: Intracellular signalling by Western blot: HIF-1α abundance; type: cell-based, human; conditions: serum-starved HEK293 cells, 100 μM, 10 or 30 min, vs. Basal
Protocol: as §3

phospho-Akt (Ser473) = experiment: Intracellular signalling by Western blot: phospho-Akt; type: cell-based, human; conditions: serum-starved HEK293 cells, 100 μM, 10 or 30 min, vs. Basal
Protocol: as §3

[5] = system: phospho-ERK1/2 (Thr202/Tyr204); experiment: Intracellular signalling by Western blot: phospho-ERK1/2; type: cell-based, human; conditions: serum-starved HEK293 cells, 100 μM, 10 or 30 min, vs. Basal
Protocol: as §3

[6] = system: phospho-S6RP (Ser235/236); experiment: Intracellular signalling by Western blot: phospho-S6RP; type: cell-based, human; conditions: serum-starved HEK293 cells, 100 μM, 10 or 30 min, vs. Basal
Protocol: as §3

HEK293 cells = experiment: Cytotoxicity assay (MTS) on HEK293 cells; type: cell-based; conditions: for time dependence of cytotoxicity on HEK293 cells: 1-, 4- and 24-h treatment
Protocol: as §1, §2

phospho-AMPK (Thr172) = experiment: Intracellular signalling by Western blot: phospho-AMPK; type: cell-based, human; conditions: serum-starved HEK293 cells, 100 μM, 10 or 30 min, vs. Basal
Protocol: as §3

SH-SY5Y cells = experiment: Cytotoxicity assay (MTS) on SH-SY5Y cells; type: cell-based; conditions: 1-, 4- and 24-h treatment
Protocol: as §1, §2

[7] = human, HEK293 cells, MTS assay, 6.25–800 µM, mean of at least three experiments with standard error

Chain of human BChE (P06276 29-602): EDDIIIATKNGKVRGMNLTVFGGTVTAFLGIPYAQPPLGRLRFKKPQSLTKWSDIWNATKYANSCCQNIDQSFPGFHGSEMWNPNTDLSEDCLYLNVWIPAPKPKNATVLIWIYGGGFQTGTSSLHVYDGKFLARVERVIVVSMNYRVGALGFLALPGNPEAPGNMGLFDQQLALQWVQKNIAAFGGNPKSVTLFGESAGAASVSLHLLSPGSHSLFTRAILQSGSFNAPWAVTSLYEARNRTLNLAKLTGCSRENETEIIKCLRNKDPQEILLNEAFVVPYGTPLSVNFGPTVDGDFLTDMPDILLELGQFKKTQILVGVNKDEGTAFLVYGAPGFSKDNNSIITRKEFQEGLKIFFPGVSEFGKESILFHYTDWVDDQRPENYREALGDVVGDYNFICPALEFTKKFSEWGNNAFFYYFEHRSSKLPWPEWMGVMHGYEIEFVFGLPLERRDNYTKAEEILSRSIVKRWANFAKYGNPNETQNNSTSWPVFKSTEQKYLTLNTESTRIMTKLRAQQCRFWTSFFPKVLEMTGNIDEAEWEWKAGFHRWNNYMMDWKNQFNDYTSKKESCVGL
Chain of human AChE (P22303 other isoform, or with tags, fused parts or gaps): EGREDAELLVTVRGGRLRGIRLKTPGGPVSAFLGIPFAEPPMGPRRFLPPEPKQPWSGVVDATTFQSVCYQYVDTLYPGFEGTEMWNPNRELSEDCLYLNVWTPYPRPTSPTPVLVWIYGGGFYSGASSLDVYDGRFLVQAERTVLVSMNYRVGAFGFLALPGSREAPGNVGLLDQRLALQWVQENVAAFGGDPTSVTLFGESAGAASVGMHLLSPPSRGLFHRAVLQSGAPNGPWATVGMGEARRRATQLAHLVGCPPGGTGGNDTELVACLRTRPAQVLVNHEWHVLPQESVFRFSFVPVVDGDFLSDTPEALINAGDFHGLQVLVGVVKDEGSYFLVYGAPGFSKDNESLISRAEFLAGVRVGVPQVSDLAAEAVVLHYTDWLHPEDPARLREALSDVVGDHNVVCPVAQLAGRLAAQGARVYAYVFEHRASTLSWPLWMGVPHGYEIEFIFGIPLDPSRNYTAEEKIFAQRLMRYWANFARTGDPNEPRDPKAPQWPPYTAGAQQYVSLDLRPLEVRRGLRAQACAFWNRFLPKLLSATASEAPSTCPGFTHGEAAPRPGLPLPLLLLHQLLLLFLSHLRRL

Structure (SMILES)	IC50 (BChE; IC50 values per footnote 3, ref [50]) [nM]	IC50 [1, 7] [µM]	IC50 [2] [µM]	Ki (human BChE) [µM]	Ki (human AChE) [µM]	Ki (AChE)/Ki (BChE) (human AChE)	Ki (AChE)/Ki (BChE) (AChE [3])	Ki (BChE; ref [47]) [nM]	Ki (AChE [4]) [µM]	phosphorylation of ACC (Ser79) (phospho-ACC (Ser79))	abundance of HIF-1α (HIF-1α)	phosphorylation of Akt (Ser473) (phospho-Akt (Ser473))	phosphorylation of ERK1/2 (Thr202/Tyr204) [5]	phosphorylation of S6RP (Ser235/236) [6]	time dependence of cytotoxicity on HEK293 cells (HEK293 cells)	phosphorylation of AMPK (Thr172) (phospho-AMPK (Thr172))	time dependence of cytotoxicity on SH-SY5Y cells (SH-SY5Y cells)	IC50 ([1]; human; HEK293 cells, MTS assay, 6.25–800 µM, mean of at least three experiments with standard error) [µM]	IC50 (HEK293 cells; HEK293 cells, MTS assay, 6.25–800 µM, mean of at least three experiments with standard error) [µM]	preference for binding to AChE over BChE (human AChE; selectivity from Ki values)
COc1ccccc1C(=O)C[n+]1cccc(C(N)=O)c1 [Compound 9]	–	≥ 800	≥ 800	180 ± 18	26 ± 4	0.14	–	–	–	–	–	–	–	–	–	–	–	–	–	–
NC(=O)c1ccc[n+](CC(=O)c2ccccc2)c1 [Compound 1]	–	≤ 800	≥ 800	232 ± 20	79 ± 11	0.34	–	–	–	–	–	–	–	–	–	–	–	–	–	–
CCN(CC)C(C)CN1c2ccccc2Sc2ccccc21 (stereo not drawn) [Ethopropazine]	–	–	–	–	–	–	1010	160	161	–	–	–	–	–	–	–	–	–	–	–
NC(=O)c1ccc[n+](CC(=O)c2ccc([N+](=O)[O-])cc2)c1 [Compound 5]	–	417 ± 1	214 ± 5	145 ± 24	39 ± 5	0.27	–	–	–	markedly increased	unaltered	markedly pronounced	reached statistical significance; also recorded: marked increase	decreased	time-dependent mechanism	markedly increased	time-dependent mechanism	–	–	–
NC(=O)c1ccc[n+](CC(=O)c2ccc(-c3ccccc3)cc2)c1.[Br-] [Compound 8, 1-(4′-phenylphenacyl)-3-carbamoylpyridinium bromide]	–	–	257 ± 1	–	4 ± 0.2	0.50	–	–	–	increased phosphorylation	increased	markedly pronounced	reached statistical significance; also recorded: marked increase	unaltered	–	not significantly altered	time-dependent mechanism	155 ± 1	–	–
COc1ccc(C(=O)C[n+]2cccc(C(N)=O)c2)cc1 [Compound 7]	–	≥ 800	≥ 800	216 ± 34	19 ± 2	0.08	–	–	–	–	–	–	–	–	–	–	–	–	–	–
NC(=O)c1ccc[n+](CC(=O)c2ccc(F)cc2)c1 [Compound 2]	–	≥ 800	≥ 800	595 ± 73	85 ± 15	0.14	–	–	–	–	–	–	–	–	–	–	–	–	–	–
NC(=O)c1ccc[n+](CC(=O)c2ccc(Br)cc2)c1 [Compound 4]	–	~85	501 ± 2	47 ± 15	11 ± 3	0.23	–	–	–	did not respond	increased	suppressing	tended to transiently increase	increased	time-dependent mechanism	did not respond	time-dependent mechanism	–	83 ± 1	–
Cc1ccc(C(=O)C[n+]2cccc(C(N)=O)c2)cc1 [Compound 6]	–	≤ 800	≥ 800	242 ± 22	3 ± 1	0.01	–	–	–	–	–	–	–	–	–	–	–	–	–	up to 80 times
NC(=O)c1ccc[n+](CC(=O)c2ccc(Cl)cc2)c1 [Compound 3]	–	~85	≤ 800	224 ± 23	33 ± 5	0.15	–	–	–	did not respond	not statistically significant	suppressing	tended to transiently increase	increased	time-dependent mechanism	did not respond	time-dependent mechanism	–	–	–
